Experimental data: patent publication US6987112B2, “Organic compound having cyano group and insecticides/miticides” (Nippon Soda Co., Ltd., priority 2000, dated 2006)
Read-outs that look alike come from different tables or passages of the source.

What was measured:
Cotton Aphids = assay: Efficacy on cotton aphids (spray on 1st instar nymphs on cucumber leaves); assay type: in vivo; conditions: 125 ppm spray, 25° C., 65% RH, five days later, duplicate
[1] = system: susceptible Citrus red mite; assay: Effects on Citrus red mite (spray on adult females on Citrus leaf in Petri dish); assay type: in vivo; conditions: Panonychus citri, read-out: percentage mortality
Experimental: Eight adult females of susceptible Citrus red mite were inoculated on the surface of Citrus leaf placed in a glass Petridish. […] The solution was sprayed on the mites using a rotary spraying tower up to the fixed volume. […] The test was carried out in duplicate.

Cn1nc(C(F)(F)F)c(C(OC(=O)C(C)(C)C)=C(C#N)Oc2ccc(Cl)cc2)c1Cl [Compound No. 3-9, β-(5-chloro-1-methyl-3-trifluoromethylpyrazole-4-yl)-α-(4-chlorophenoxy)-β-pivaloyloxyacrylonitrile]
mortality at 125 ppm (Cotton Aphids; 120 h, read-out: percentage mortality): 100% | mortality at 125 ppm ([1]; 125 ppm spray (wettable powder), adult females on Citrus leaf, 25° C., 65% RH, third day after spraying, duplicate): 100%

Cc1cc(Cl)ccc1N=CN(C)C [chlordimeform]
mortality at 125 ppm [1]: 13%

Cc1nc(N(C)C)nc(OC(=O)N(C)C)c1C [pyrimicarb]
percentage mortality (Cotton Aphids): 9%
